# Source: patent publication US20240270821A1, “GIP/GLP1/GCG TRI-RECEPTOR AGONISTS AND USES THEREOF” (priority 2023, published 2024)
# Read-outs that look alike come from different tables or passages of the source. Starred links: 1 amine or outer side, 2 acyl side, 3 side chain; linkers in the order of their positions; H or OH if unused. Non-standard residues stand in square brackets, D forms with d. Residues, ends and D or L forms follow the SMILES beside them. Groups on a side chain read outwards from the residue. *: point of attachment. C20 diacid = O=C(O)CCCCCCCCCCCCCCCCCCC(=O)*; C18 diacid = O=C(O)CCCCCCCCCCCCCCCCC(=O)*; αMePhe(2-F) = C[C@](N)(Cc1ccccc1F)C(=O)O; γGlu = O=C(O)[C@H](CCC(=O)[*:2])N[*:1]; αMe4Pal = C[C@](N)(Cc1ccncc1)C(=O)O; αMeY = C[C@](N)(Cc1ccc(O)cc1)C(=O)O; 4Pal = N[C@@H](Cc1ccncc1)C(=O)O; αMeL = CC(C)C[C@](C)(N)C(=O)O; Orn = NCCC[C@H](N)C(=O)O; Dab = NCC[C@H](N)C(=O)O; Dap = NC[C@H](N)C(=O)O; AEEA = NCCOCCOCC(=O)O; Aib = CC(C)(N)C(=O)O
# Legend:
# Format in all cases: cell-based
# hGIPR [1] = molecular target: T1, hGIPR (Homo sapiens, UniProt P48546); assay: Functional cAMP activity in the presence of 1% HSA; settings: read-out: cAMP Rel EC50, hGIPR
# T1 sequence (P48546 22-466): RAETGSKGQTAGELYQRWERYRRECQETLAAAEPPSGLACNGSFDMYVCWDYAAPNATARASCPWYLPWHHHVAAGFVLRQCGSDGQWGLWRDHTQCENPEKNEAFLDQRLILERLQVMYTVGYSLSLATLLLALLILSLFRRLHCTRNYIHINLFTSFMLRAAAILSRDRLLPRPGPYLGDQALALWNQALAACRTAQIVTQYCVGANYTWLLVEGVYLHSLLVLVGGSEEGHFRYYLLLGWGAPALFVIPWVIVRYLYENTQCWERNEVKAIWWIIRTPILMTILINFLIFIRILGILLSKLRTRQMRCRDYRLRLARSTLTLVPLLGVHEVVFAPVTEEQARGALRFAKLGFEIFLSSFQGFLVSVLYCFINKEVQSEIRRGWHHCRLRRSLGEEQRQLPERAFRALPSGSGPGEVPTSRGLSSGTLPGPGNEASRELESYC
# hGLP-1R [2] = molecular target: T2, hGLP-1R (Homo sapiens, UniProt P43220); assay: Functional cAMP activity in the presence of 1% HSA; settings: read-out: cAMP Rel EC50, hGLP-1R
# T2 sequence (P43220 24-463): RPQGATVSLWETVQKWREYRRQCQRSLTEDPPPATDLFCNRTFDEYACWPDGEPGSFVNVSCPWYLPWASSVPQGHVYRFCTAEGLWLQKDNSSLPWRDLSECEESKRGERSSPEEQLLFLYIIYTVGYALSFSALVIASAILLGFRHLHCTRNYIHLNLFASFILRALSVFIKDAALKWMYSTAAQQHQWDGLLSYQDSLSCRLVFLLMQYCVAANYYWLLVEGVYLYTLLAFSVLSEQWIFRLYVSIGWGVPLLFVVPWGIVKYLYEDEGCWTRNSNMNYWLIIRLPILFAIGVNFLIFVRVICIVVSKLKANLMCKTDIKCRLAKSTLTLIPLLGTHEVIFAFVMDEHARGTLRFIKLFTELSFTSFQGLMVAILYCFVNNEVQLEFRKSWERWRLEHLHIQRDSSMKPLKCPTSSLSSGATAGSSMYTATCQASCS
# hGcgR = hGcgR (Homo sapiens, UniProt P47871); assay: Functional cAMP activation in the presence of 0.1% casein (no HSA); settings: geometric mean, read-out: Relative cAMP EC50, hGcgR;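 also: intracellular cAMP rise after 30 min at 37 °C, read by HTRF against a cAMP standard curve, scaled from buffer only (0%) to maximal control ligand response (100%)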
# hGcgR, sequence (P47871 26-477): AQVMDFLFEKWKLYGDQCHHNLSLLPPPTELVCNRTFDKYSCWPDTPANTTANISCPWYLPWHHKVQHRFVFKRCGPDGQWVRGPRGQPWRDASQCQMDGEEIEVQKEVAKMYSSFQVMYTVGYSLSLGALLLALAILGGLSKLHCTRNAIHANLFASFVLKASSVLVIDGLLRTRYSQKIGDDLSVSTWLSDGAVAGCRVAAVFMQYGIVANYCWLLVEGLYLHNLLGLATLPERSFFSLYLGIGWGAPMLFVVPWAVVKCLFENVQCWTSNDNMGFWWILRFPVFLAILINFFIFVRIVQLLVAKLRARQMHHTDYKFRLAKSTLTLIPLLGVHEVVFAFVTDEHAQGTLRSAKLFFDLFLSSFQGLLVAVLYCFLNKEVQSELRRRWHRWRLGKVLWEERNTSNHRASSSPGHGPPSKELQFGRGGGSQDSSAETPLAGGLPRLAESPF
# hGLP-1R [3] = molecular target: T2, hGLP-1R; assay: as above; settings: geometric mean, read-out: Relative cAMP EC50, hGLP-1R
# hGIPR [4] = molecular target: T1, hGIPR; assay: as above; settings: geometric mean, read-out: Relative cAMP EC50, hGIPR
# human GcgR = human GcgR (Homo sapiens, UniProt P47871); assay: Functional cAMP activity in the presence of 1% HSA; settings: read-out: cAMP Rel EC50, hGcgR
# human GcgR, sequence (P47871 26-477): as above
# [5] = in the presence of 0.1% casein (no HSA)
# 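For Relative cAMP EC50, hGIPR in this document: intracellular cAMP rise after 30 min at 37 °C read by HTRF against a standard curve, scaled between buffer alone (0%) and top control ligand concentration (100%), four-parameter fit.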
# 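For Relative cAMP EC50, hGLP-1R in this document: intracellular cAMP rise after 30 min at 37 °C read by HTRF, normalized between buffer only (0%) and maximal control ligand (100%), four-parameter variable-slope fit.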
Compound,"EC50 (hGIPR [1]; HEK-293 cells expressing hGIPR, 1% HSA, geometric mean of relative EC50)","EC50 (hGLP-1R [2]; HEK-293 cells expressing hGLP-1R, 1% HSA, geometric mean of relative EC50)","EC50 (hGcgR; 0.1% casein, no HSA)","EC50 (hGLP-1R [3]; 0.1% casein, no HSA)","EC50 (hGIPR [4]; 0.1% casein, no HSA)","EC50 (human GcgR; HEK-293 cells expressing hGcgR, 1% HSA, geometric mean of relative EC50)",EC50 (hGIPR [1]),EC50 (hGLP-1R [2]),EC50 (hGcgR; [5]),EC50 (hGLP-1R [3]; [5]),EC50 (hGIPR [4]; [5]),EC50 (human GcgR)
CC[C@H](C)[C@H](NC(=O)[C@H](Cc1ccccc1)NC(=O)[C@H](C)NC(=O)C(C)(C)NC(=O)[C@H](C)NC(=O)[C@H](C)NC(=O)[C@H](CCCCNC(=O)COCCOCCNC(=O)CC[C@H](NC(=O)CCCCCCCCCCCCCCCCC(=O)O)C(=O)O)NC(=O)[C@H](CCCN)NC(=O)[C@H](CC(=O)O)NC(=O)[C@H](CC(C)C)NC(=O)[C@](C)(CC(C)C)NC(=O)[C@@H](NC(=O)[C@H](CO)NC(=O)[C@H](Cc1ccncc1)NC(=O)[C@H](CC(=O)O)NC(=O)[C@H](CO)NC(=O)[C@@H](NC(=O)[C@](C)(Cc1ccccc1F)NC(=O)[C@@H](NC(=O)CNC(=O)[C@H](CCC(N)=O)NC(=O)C(C)(C)NC(=O)[C@@H](N)Cc1ccc(O)cc1)[C@@H](C)O)[C@@H](C)O)[C@@H](C)CC)C(=O)N[C@H](CCC(=O)O)C(=O)N[C@@](C)(Cc1ccc(O)cc1)C(=O)N[C@@H](CC(C)C)C(=O)N[C@@H](CC(C)C)C(=O)N[C@@H](CCC(=O)O)C(=O)NCC(=O)NCC(=O)N1CCC[C@H]1C(=O)N[C@@H](CO)C(=O)N[C@@H](CO)C(=O)NCC(=O)N[C@@H](CCC(=O)O)C(=O)N1CCC[C@H]1C(=O)N1CCC[C@H]1C(=O)N1CCC[C@H]1C(=O)N[C@@H](CO)C(N)=O [Example 1236] (H-Y[Aib]QGT[αMePhe(2-F)]TSD[4Pal]SI[αMeL]LD[Orn]K([AEEA-γGlu-C18 diacid])AA[Aib]AFI[dE][αMeY]LLEGGPSSGEPPPS-NH2),11.9 nM,95.8 nM,0.947 nM,0.304 nM,0.052 nM,502 nM,–,–,–,–,–,–
H-Y[Aib]QGTFTSDFSK[αMeL]LDKK([AEEA-AEEA-γGlu-C18 diacid])AQ[Aib]AFIEYLLEGGESSGAPPPSGS-NH2 [Example 147],–,–,–,–,–,–,108 nM,964 nM,4.39 nM,4.26 nM,0.343 nM,877 nM
H-Y[Aib]QGTFTSDFSK[αMeL]LDKK([AEEA-AEEA-γGlu-C18 diacid])AQ[Aib]AFIEYLLEGGPSSGAPPPSGS-NH2 [Example 142],–,–,–,–,–,–,14.1 nM,391 nM,3.49 nM,4.37 nM,0.216 nM,1230 nM
H-Y[Aib]QGTFTSDFSK[αMeL]LDKK([AEEA-γGlu-C18 diacid])AQ[Aib]AFIEYLIEGGESSGAPPPSGS-NH2 [Example 215],–,–,–,–,–,–,87.3 nM,162 nM,9.77 nM,0.803 nM,0.418 nM,1510 nM
H-Y[Aib]QGTFTSDFSK[αMeL]LDKK([AEEA-γGlu-C18 diacid])AQ[Aib]AFIEYLIE[Aib]GESSGAPPPSGS-NH2 [Example 216],–,–,–,–,–,–,12 nM,90.6 nM,2.7 nM,0.52 nM,0.0887 nM,895 nM
H-Y[Aib]QGTFTSDFSK[αMeL]LDKK([AEEA-γGlu-C18 diacid])AQ[Aib]AFIEYLIE[Aib]SPSSGAPPPSGS-NH2 [Example 805],–,–,–,–,–,–,13 nM,146 nM,3.97 nM,0.715 nM,0.0875 nM,1210 nM
H-Y[Aib]QGTFTSDFSK[αMeL]LDKK([AEEA-γGlu-C18 diacid])AQ[Aib]AFIEYLLEGGESSGAPPPSGS-NH2 [Example 146],–,–,–,–,–,–,74.6 nM,678 nM,2.04 nM,2.73 nM,0.362 nM,463 nM
H-Y[Aib]QGTFTSDFSK[αMeL]LDKK([AEEA-γGlu-C18 diacid])AQ[Aib]AFIEYLLEGGPSSGAPPPSEG[AEEA]-NH2 [Example 56],–,–,–,–,–,–,30.3 nM,167 nM,2.8 nM,4.07 nM,0.315 nM,265 nM
H-Y[Aib]QGTFTSDFSK[αMeL]LDKK([AEEA-γGlu-C18 diacid])AQ[Aib]AFIE[αMe4Pal]LIE[Aib]GPSSGAPPPSGS-NH2 [Example 912],–,–,–,–,–,–,6.15 nM,59.6 nM,3.76 nM,0.414 nM,0.0387 nM,955 nM
H-Y[Aib]QGTFTSDFSK[αMeL]LDKK([AEEA-γGlu-C20 diacid])AQ[Aib]AFIEWLIEGGPSSGAPPPSEG-NH2 [Example 40],–,–,–,–,–,–,76.7 nM,138 nM,12.3 nM,0.693 nM,0.139 nM,2750 nM
H-Y[Aib]QGTFTSDFSK[αMeL]LDKK([AEEA-γGlu-C20 diacid])AQ[Aib]AFIEWLLAGGPSSGEPPPSEG-NH2 [Example 20],–,–,–,–,–,–,42.3 nM,326 nM,15.4 nM,2.45 nM,0.381 nM,587 nM
H-Y[Aib]QGTFTSDFSK[αMeL]LDKK([AEEA-γGlu-C20 diacid])AQ[Aib]AFIEYLLAGGPSSGAPPPSGS-NH2 [Example 14],–,–,–,–,–,–,34.7 nM,232 nM,7.23 nM,1.67 nM,0.17 nM,1420 nM
H-Y[Aib]QGTFTSDFSK[αMeL]LDKK([AEEA-γGlu-C20 diacid])AQ[Aib]AFIEYLLAGGPSSGEPPPGGS-NH2 [Example 9],–,–,–,–,–,–,41.8 nM,402 nM,7.19 nM,1.61 nM,0.205 nM,1430 nM
H-Y[Aib]QGTFTSDFSK[αMeL]LDKK([AEEA-γGlu-C20 diacid])AQ[Aib]AFIEYLLAGGPSSGEPPPSGG-NH2 [Example 6],–,–,–,–,–,–,46.6 nM,446 nM,6.89 nM,1.95 nM,0.232 nM,1380 nM
H-Y[Aib]QGTFTSDFSK[αMeL]LDKK([AEEA-γGlu-C20 diacid])AQ[Aib]AFIEYLLEGAPSSGAPPPSEG-NH2 [Example 47],–,–,–,–,–,–,154 nM,1270 nM,5.61 nM,3.4 nM,0.388 nM,2140 nM
H-Y[Aib]QGTFTSDFSK[αMeL]LDKK([AEEA-γGlu-C20 diacid])AQ[Aib]AFIEYLLEGGPSSGAPPP[γGlu]EG-NH2 [Example 52],–,–,–,–,–,–,111 nM,1250 nM,5.84 nM,5.18 nM,0.449 nM,1740 nM
H-Y[Aib]QGTFTSDFSK[αMeL]LDKK([AEEA-γGlu-C20 diacid])AQ[Aib]AFIEYLLEGGPSSGAPPP[γGlu]GE-NH2 [Example 53],–,–,–,–,–,–,113 nM,1030 nM,4.19 nM,3.31 nM,0.518 nM,1780 nM
H-Y[Aib]QGTFTSDFSK[αMeL]LDKK([AEEA-γGlu-C20 diacid])AQ[Aib]AFIEYLLEGGPSSGEPPPEEG-NH2 [Example 35],–,–,–,–,–,–,194 nM,1130 nM,4.32 nM,3.05 nM,0.55 nM,1390 nM
H-Y[Aib]QGTFTSDFSK[αMeL]LDKK([AEEA-γGlu-C20 diacid])AQ[Aib]AFIEYLLEGGPSSGEPPPGEG[AEEA]-NH2 [Example 54],–,–,–,–,–,–,168 nM,1300 nM,3.77 nM,3.95 nM,0.502 nM,1940 nM
H-Y[Aib]QGTFTSDFS[Dab][αMeL]LDKK([AEEA-γGlu-C18 diacid])AQ[Aib]AFIEYLIE[Aib]GPSSGAPPPSGS-NH2 [Example 799],–,–,–,–,–,–,18.4 nM,179 nM,1.64 nM,0.462 nM,0.0668 nM,574 nM
H-Y[Aib]QGTFTSDFS[Dab][αMeL]LDKK([AEEA-γGlu-C18 diacid])AQ[Aib]AFIEYLLE[Aib]GPSSGAPPPSGS-NH2 [Example 133],–,–,–,–,–,–,23.1 nM,1180 nM,1.64 nM,3.6 nM,0.15 nM,642 nM
H-Y[Aib]QGTFTSDFS[Dap][αMeL]LDKK([AEEA-γGlu-C18 diacid])AQ[Aib]AFIEYLIE[Aib]GPSSGAPPPSGS-NH2 [Example 800],–,–,–,–,–,–,40.2 nM,164 nM,21 nM,0.486 nM,0.283 nM,2500 nM
H-Y[Aib]QGTFTSDFS[Dap][αMeL]LDKK([γGlu-γGlu-C18 diacid])AQ[Aib]AFIEYLLE[Aib]GPSSGAPPPSGS-NH2 [Example 203],–,–,–,–,–,–,19 nM,532 nM,6.92 nM,4.72 nM,0.125 nM,1160 nM
